Assays:
Rtkn = assay: ToxTracker genotoxicity assay, Rtkn GFP reporter; settings: fold induction vs vehicle control
[1] = Storage stability of the crosslinker dispersion (gelling / coagulation); settings: dispersion pH 11 with TEA, Maxemul 7101
Procedure: Functional performance and stability of the crosslinker dispersion were assessed using spot tests on coating surfaces, based on procedures from the DIN 68861-1 standard, and viscosity measurements using a Brookfield DVE-LV viscometer (S62 spindle at 60 rpm unless mentioned otherwise). For these tests, the crosslinker dispersion was stored in an oven at 50° C. for 4 weeks. Every week, the viscosity of the crosslinker dispersion was determined. […] This coating composition was filtered and applied to Leneta test cards using 100 μm wire rod applicators (Test 1). For reference, films were also cast from the same composition lacking the crosslinker dispersion (Test Blank). The films were dried for 1 hour at 25° C., then annealed at 50° C. for 16 hours. Subsequently, a piece of cotton wool was soaked in 1:1 EtOH: demineralized water and placed on the film for 1 hour.

[2] = described in U.S. Pat. No. 5,133,997; cited from earlier work

Question: For `CCCCOCC(CN1CC1)OC(=O)NCCCCCCn1c(=O)n(CCCCCCNC(=O)OC(COCCCC)CN2CC2)c(=O)n(CCCCCCNC(=O)OC(COCCCC)CN2CC2)c1=O` (stereo not drawn) [Composition 1], which “Rtkn GFP reporter induction level” value (Rtkn; With S9 rat liver extract, at 10% cytotoxicity, 3 h exposure and 24 h recovery) is on record?
Answer: 1.0

Question: What about the “Rtkn GFP reporter induction level” value (Rtkn; With S9 rat liver extract, at 25% cytotoxicity, 3 h exposure and 24 h recovery) of the same compound?
Answer: 1.1

Question: What about the “Rtkn GFP reporter induction level” value (Rtkn; With S9 rat liver extract, at 50% cytotoxicity, 3 h exposure and 24 h recovery) of the same compound?
Answer: 1.1

Question: And the “Rtkn GFP reporter induction level” value (Rtkn; Without S9 rat liver extract, at 10% cytotoxicity, 24 h exposure)?
Answer: 1.0

Question: And the “Rtkn GFP reporter induction level” value (Rtkn; Without S9 rat liver extract, at 25% cytotoxicity, 24 h exposure)?
Answer: 1.0

Question: What about the “Rtkn GFP reporter induction level” value (Rtkn; Without S9 rat liver extract, at 50% cytotoxicity, 24 h exposure) of the same compound?
Answer: 0.9

Question: Which results are given for `O=C(NCCCCCCn1c(=O)n(CCCCCCNC(=O)OCCN2CC2)c(=O)n(CCCCCCNC(=O)OCCN2CC2)c1=O)OCCN1CC1` [Example C4]?
Answer: Storage stability of dispersion [1]: a storage stable dispersion was not obtained; Time until severe coagulation was observed after preparation of the dispersion [1]: ≤ 4 h

Question: For `O=C(CCN1CC1)OCC(CO)(COC(=O)CCN1CC1)COC(=O)CCN1CC1` [XAMA-7], which Stability in water [2] is on record?
Answer: unstable in water

Reference: US12378188B2, “Waterborne crosslinker composition” (priority 2020, dated 2025)
